Here are results for eight compounds from article PMC11879280, “Antimicrobial activity of peptoids against Metallo-β-lactamase-producing Klebsiella pneumoniae, Acinetobacter baumannii, Pseudomonas aeruginosa, and other WHO priority pathogens, including Candida auris” (Journal of Applied Microbiology, 2025).

One test deals with A. baumannii 005. Conditions: A. baumannii 005; CAMHB, 37°C, 16–20 h. How it is done: (§1) Briefly, bacteria were suspended in cation-adjusted Mueller–Hinton broth (CAMHB; Oxoid, UK) for antibiotics, or MHB (Oxoid, UK) for peptidomimetics to obtain 5 × 10^5 colony forming unit (CFU) ml^−1. […] Positive controls contained only microbes, and blanks contained only media. Microbial suspensions (100 µl) were added to wells, plates wrapped, and incubated at 37°C, 120 rpm for 16–20 h. After incubation, suspensions were removed, log10 diluted, and plated on Trypticase Soya Agar with phosphatidylcholine and Tween 80 to determine minimum bactericidal or fungicidal concentration (MBC or MFC). […] Geometric mean MIC of the peptoids were calculated to evaluate the broad overview of antimicrobial activity across the pathogens.

A further test deals with A. baumannii 006. Conditions: A. baumannii 006; CAMHB, 37°C, 16–20 h. How it is done: as §1
A further test concerns A. baumannii 007. Conditions: A. baumannii 007; CAMHB, 37°C, 16–20 h. How it is done:
as §1

The test system of a further test is A. baumannii 008. Conditions: A. baumannii 008; CAMHB, 37°C, 16–20 h. How it is done:
as §1

A further test has as its system A. baumannii ATCC 19 606. Conditions: A. baumannii ATCC 19 606; CAMHB, 37°C, 16–20 h. As for the experimental part: as §1
For another test, the system named is E. coli 0010. As to conditions: E. coli 0010; CAMHB, 37°C, 16–20 h. As for the experimental part: as §1
For a further test, the system named is E. coli 0011. As to conditions: E. coli 0011; CAMHB, 37°C, 16–20 h. As for the experimental part:
as §1

The next test concerns E. coli 0015. As to conditions: E. coli 0015; CAMHB, 37°C, 16–20 h. How it is done: as §1
For the next test, the system named is E. coli 005. As to conditions: E. coli 005; CAMHB, 37°C, 16–20 h. How it is done: as §1
The next test deals with En. cloacae 001. Conditions: En. cloacae 001; CAMHB, 37°C, 16–20 h. How it is done:
as §1

The test system of a further test is En. cloacae 003. As to conditions: En. cloacae 003; CAMHB, 37°C, 16–20 h. As for the experimental part:
as §1

In another test the test system is En. cloacae 005. Conditions: En. cloacae 005; CAMHB, 37°C, 16–20 h. As for the experimental part:
as §1

Test [1] concerns K. pneumoniae JIE2709. Conditions: K. pneumoniae JIE2709; CAMHB, 37°C, 16–20 h. As for the experimental part: as §1
The test system of the next test is K. pneumoniae JIE2713. Conditions: K. pneumoniae JIE2713; CAMHB, 37°C, 16–20 h. As for the experimental part:
as §1

The next test deals with K. pneumoniae JIE4212. Conditions: K. pneumoniae JIE4212; CAMHB, 37°C, 16–20 h. As for the experimental part: as §1
In the next test the test system is P. aeruginosa 216. Conditions: P. aeruginosa 216; CAMHB, 37°C, 16–20 h. As for the experimental part:
as §1

The next test concerns P. aeruginosa 33. As to conditions: P. aeruginosa 33; CAMHB, 37°C, 16–20 h. As for the experimental part: as §1
A further test deals with P. aeruginosa AR-1270. As to conditions: P. aeruginosa AR-1270; CAMHB, 37°C, 16–20 h. As for the experimental part: as §1
Another test relates to S. aureus 04. Conditions: S. aureus 04; CAMHB, 37°C, 16–20 h. As for the experimental part:
as §1

The subject of the next test is S. aureus 105. As to conditions: S. aureus 105; CAMHB, 37°C, 16–20 h. How it is done: as §1
The next test concerns S. aureus 117. As to conditions: S. aureus 117; CAMHB, 37°C, 16–20 h. As for the experimental part: as §1
The next test has as its system S. aureus 38. As to conditions: S. aureus 38; CAMHB, 37°C, 16–20 h. As for the experimental part:
as §1

The subject of test [2] is Enteroc. faecalis NCTC 13 379. Conditions: Enteroc. faecalis NCTC 13 379; CAMHB, 37°C, 16–20 h. As for the experimental part: as §1
Test [3] relates to K. pneumoniae JIE2709. Nature of the test: Checkerboard microdilution synergy test. Format: cell-based, Klebsiella pneumoniae. As for the experimental part: Then, 10 µl of bacteria (5 × 10^6 CFU ml^−1) or C. auris (2.5 × 10^4 CFU ml^−1) were added to each well, except for the sterility control well. […] The sterility control wells contained only MHB (or RPMI in case of C. auris), and the growth control contained 110 µl of microbial inoculum with no antimicrobials. Subsequently, the plates were incubated for 18- 24 hours at 36 ± 1 °C.
The FIC for each combination interaction was calculated as follows:
Then, the summation of FIC (ƩFIC) was calculated for each antimicrobial combination as follows: ƩFIC = FICA + FICB. […] All antimicrobial synergy experiments were repeated in at least two independent runs.
(In general: In broth dilution the organism is exposed to a series of concentrations in liquid medium.)

Turning to `CC(C)(O/N=C(\C(=O)N[C@@H]1C(=O)N2C(C(=O)[O-])=C(C[n+]3ccccc3)CS[C@H]12)c1csc(N)n1)C(=O)O` [Cefaz, ceftazidime, reference compound], the MIC of antibiotics in the test with A. baumannii 005 amounted to 512 µg/mL; in the test on A. baumannii 006 it was 512 µg/mL; with A. baumannii 007 it was 512 µg/mL; in the test with A. baumannii 008 it was 512 µg/mL; in the test on A. baumannii ATCC 19 606, 8 µg/mL; with E. coli 0010, 2 µg/mL. Besides, the MIC of antibiotics turned out to be 4 µg/mL with E. coli 0011; 0.5 µg/mL with E. coli 0015; 0.25 µg/mL in the test with E. coli 005; 4 µg/mL with En. cloacae 001; 4 µg/mL in the test on En. cloacae 003; 128 µg/mL in the test with En. cloacae 005. Also, the MIC of antibiotics in the test with K. pneumoniae JIE2709 [1] was 32 µg/mL; in the test on K. pneumoniae JIE2713, more than 512 µg/mL; with K. pneumoniae JIE4212, more than 512 µg/mL; in the test on P. aeruginosa 216, 2 µg/mL; in the test with P. aeruginosa 33, 32 µg/mL; in the test on P. aeruginosa AR-1270 it was more than 512 µg/mL.
In the case of `CO/N=C(\C(=O)N[C@@H]1C(=O)N2C(C(=O)O)=C(COC(C)=O)CS[C@H]12)c1csc(N)n1` [Cefox, cefotaxime, reference compound], the MIC of antibiotics came out at 0.5 µg/mL in the test on S. aureus 04, 16 µg/mL in the test with S. aureus 105, 0.5 µg/mL in the test with S. aureus 117 and 0.5 µg/mL in the test on S. aureus 38.
For the compound `CC[C@H]1OC(=O)[C@H](C)[C@@H](O[C@H]2C[C@@](C)(OC)[C@@H](O)[C@H](C)O2)[C@H](C)[C@@H](O[C@@H]2O[C@H](C)C[C@H](N(C)C)[C@H]2O)[C@](C)(O)C[C@@H](C)C(=O)[C@H](C)[C@@H](O)[C@]1(C)O` [Ery, erythromycin, reference compound], the MIC of antibiotics was 4 µg/mL in test [2]; 0.5 µg/mL in the test with S. aureus 04; 32 µg/mL in the test on S. aureus 105; 1 µg/mL in the test with S. aureus 117; 1 µg/mL with S. aureus 38.
With `C[C@@H](O)[C@H]1C(=O)N2C(C(=O)O)=C(S[C@@H]3CN[C@H](C(=O)N(C)C)C3)[C@H](C)[C@H]12` [Mer, meropenem, reference compound], the minimum inhibitory concentration (MIC) in the test with K. pneumoniae JIE2709 [3] (Klebsiella pneumoniae, read-out: MIC of DrugB (alone, checkerboard)) turned out to be 32 µg/mL. For the same compound, the FICDrugB with K. pneumoniae JIE2709 [3] (in combination with TM8) worked out at 0.125. In addition, the “MF of antibiotic (modulation factor)” value in the test on K. pneumoniae JIE2709 [3] (in combination with TM8) was 8. Further, in the test on K. pneumoniae JIE2709 [3] (in combination with TM8), the “MIC of DrugB + TM8” value is 4 µg/mL. Besides, the MIC of antibiotics in the test on A. baumannii 005 is more than 64 µg/mL; in the test on A. baumannii 006 it was 64 µg/mL; in the test on A. baumannii 007, 64 µg/mL; in the test with A. baumannii 008, 64 µg/mL; with A. baumannii ATCC 19 606 it was 0.5 µg/mL; in the test with E. coli 0010, 2 µg/mL. Further, the MIC of antibiotics came to 1 µg/mL in the test with E. coli 0011; 2 µg/mL with E. coli 0015; 2 µg/mL in the test with E. coli 005; 1 µg/mL in the test on En. cloacae 001; 1 µg/mL in the test with En. cloacae 003; 0.25 µg/mL with En. cloacae 005. Moreover, the MIC of antibiotics in the test on K. pneumoniae JIE2709 [1] was 32 µg/mL; in the test with K. pneumoniae JIE2713, more than 64 µg/mL; with K. pneumoniae JIE4212, 1 µg/mL; in the test with P. aeruginosa 216, 1 µg/mL; with P. aeruginosa 33, 4 µg/mL; in the test on P. aeruginosa AR-1270 it was more than 64 µg/mL.
In the case of `CN(C)c1ccc(O)c2c1C[C@H]1C[C@H]3[C@H](N(C)C)C(O)=C(C(N)=O)C(=O)[C@@]3(O)C(O)=C1C2=O` [Min, minocycline, reference compound], the MIC of antibiotics in test [2] was 0.5 µg/mL; in the test on S. aureus 04 it was 0.25 µg/mL; in the test with S. aureus 105, 16 µg/mL; in the test with S. aureus 117, 0.5 µg/mL; in the test with S. aureus 38 it was 0.5 µg/mL.
For `CN[C@H](CC(C)C)C(=O)N[C@H]1C(=O)N[C@@H](CC(N)=O)C(=O)N[C@H]2C(=O)N[C@H]3C(=O)N[C@H](C(=O)N[C@H](C(=O)O)c4cc(O)cc(O)c4-c4cc3ccc4O)[C@H](O)c3ccc(c(Cl)c3)Oc3cc2cc(c3O[C@@H]2O[C@H](CO)[C@@H](O)[C@H](O)[C@H]2O[C@H]2C[C@](C)(N)[C@H](O)[C@H](C)O2)Oc2ccc(cc2Cl)[C@H]1O` [Van, vancomycin, reference compound], the MIC of antibiotics in test [2] stood at 32 µg/mL; with S. aureus 04 it was 1 µg/mL; in the test with S. aureus 105, 1 µg/mL; in the test on S. aureus 117, 4 µg/mL; with S. aureus 38, 1 µg/mL.
With colistin sulfate [reference compound], the MIC of antibiotics with A. baumannii 005 is 0.25 µg/mL; with A. baumannii 006, 0.25 µg/mL; with A. baumannii 007, 1 µg/mL; in the test with A. baumannii 008 it was 1 µg/mL; in the test on A. baumannii ATCC 19 606, 2 µg/mL; in the test with E. coli 0010, 2 µg/mL. For the same compound, the MIC of antibiotics in the test with E. coli 0011 was determined as 2 µg/mL; with E. coli 0015, 0.25 µg/mL; in the test on E. coli 005, 0.25 µg/mL; in the test with En. cloacae 001, 2 µg/mL; with En. cloacae 003, 1 µg/mL; with En. cloacae 005, 2 µg/mL. The MIC of antibiotics stood at 1 µg/mL with K. pneumoniae JIE2709 [1]; 1 µg/mL in the test on K. pneumoniae JIE2713; 1 µg/mL in the test on K. pneumoniae JIE4212; 16 µg/mL in the test with P. aeruginosa 216; 1 µg/mL with P. aeruginosa 33; 1 µg/mL with P. aeruginosa AR-1270.
Consider polymyxin B [PmB, reference compound], for which the MIC of antibiotics in the test on A. baumannii 005 amounted to 0.25 µg/mL; with A. baumannii 006 it was 0.25 µg/mL; with A. baumannii 007, 1 µg/mL; in the test on A. baumannii 008, 1 µg/mL; in the test on A. baumannii ATCC 19 606, 2 µg/mL; with E. coli 0010, 2 µg/mL. Besides, the MIC of antibiotics in the test on E. coli 0011 was found to be 2 µg/mL; in the test with E. coli 0015, 0.25 µg/mL; with E. coli 005, 0.25 µg/mL; with En. cloacae 001, 2 µg/mL; with En. cloacae 003 it was 1 µg/mL; in the test on En. cloacae 005, 2 µg/mL. In addition, the MIC of antibiotics in the test with K. pneumoniae JIE2709 [1] was 1 µg/mL; with K. pneumoniae JIE2713, 1 µg/mL; with K. pneumoniae JIE4212 it was 1 µg/mL; in the test on P. aeruginosa 216, 16 µg/mL; in the test with P. aeruginosa 33, 2 µg/mL; in the test with P. aeruginosa AR-1270 it was 2 µg/mL.

As usually defined, the MIC is the least concentration at which growth counts as inhibited.
